How the values were obtained:
HCT-116 = details: continuous incubation over 72 h, test MTT
Procedure: Data analysis consists in determining IC50 concentration of the protein (in ng/ml), at which the 50% reduction in the number of cells occurs in the population treated compared to control cells. Results were analyzed using GraphPad Prism 5.0 software. […] Cell culture medium was diluted to a defined density (10^4-10^5 cells per 100 μl). Then 100 μl of appropriately diluted cell suspension was applied to a 96-well plate in triplicates. Thus prepared cells were incubated for 24 h at 37° C. in 5% or 10% CO2, depending on the medium used, and then to the cells (in 100 μl of medium) further 100 μl of the medium containing various concentrations of tested proteins were added. […] After incubation of the cells with tested proteins over the period of next 72 hours, which is equivalent to 3-4 times of cell division, the medium with the test protein was added with 20 ml of MTT working solution [5 mg/ml], and incubation was continued for 3 h at 37° C. in 5% CO2. Then the medium with MTT solution was removed, and formazan crystals were dissolved by adding 100 μl of DMSO. After stirring, the absorbance was measured at 570 nm (reference filter 690 nm).
Each experiment represents the average value of at least two independent experiments performed in triplicates.

[1] = test system: human lung cancer NCI-H460-Luc2; experiment: NCI-H460-Luc2 lung cancer xenograft in Crl:CD1-Foxn1nu 1 mice; assay type: in vivo; details: NCI-H460-Luc2, Crl:CD1-Foxn1nu 1 mice, 10 mg/kg i.v. six times every second day, 30th day
Procedure: (§1) Antitumor activity of protein preparations was tested in a mouse model of human colon cancer HCT116, human colon cancer Colo205, human colon cancer model SW620, human liver cancer model HepG2, and human lung cancer models NCI-H460 and NCI-H460-Luc2.
The HCT116 (in mice Crl:CD1-Foxn1^nu 1), Colo205, NCI-H460, NCI-H460-Luc2 cells were maintained in RPMI 1640 medium (Hyclone, Logan, Utah, USA) mixed in the ratio of 1:1 with Opti-MEM (Invitrogen, Cat.22600-134) supplemented with 10% fetal calf serum and 2 mM glutamine. On the day of mice grafting, the cells were detached from the support by washing the cells with trypsin (Invitrogen), then the cells were centrifuged at 1300 rpm, 4° C., 8 min., suspended in HBSS buffer (Hanks medium), counted and diluted to the concentration of 25×10^6 cells/ml.
Examination of antitumor activity of proteins of the invention was conducted on 7-9 week-old CD-nude (Crl:CD1-Foxn1^nu 1) or 4-6 week-old Crl:SHO-Prkdc^scidHr^hr mice obtained from Charles River Germany. Mice were kept under specific pathogen-free conditions with free access to food and demineralised water (ad libitum). All experiments on animals were carried in accordance with the guidelines: “Interdisciplinary Principles and Guidelines for the Use of Animals in Research. […]

[2] = test system: human liver cancer model HepG2; experiment: HepG2 liver cancer xenograft in Crl:SHO-Prkdc^scidHr^hr mice; assay type: in vivo; details: 30 mg/kg i.v. six times every second day, 33rd day
Procedure: as §1
The HepG2cells were maintained in MEM (HyClone, Logan, Utah, USA) supplemented with 10% fetal calf serum and 2 mM glutamine. On the day of mice grafting, the cells were detached from the support by washing the cells with trypsin (Invitrogen), then the cells were centrifuged at 1300 rpm, 4°C., 8 min., suspended in HBSS buffer (Hanks medium), counted and diluted to the concentration of 25×10^6 cells/ml.
Examination of antitumor activity of proteins of the invention was conducted on 7-9 week-old CD-nude (Crl:CD1-Foxn1^nu 1) or 4-6 week-old Crl:SHO-Prkdc^scidHr^hr mice obtained from Charles River Germany. Mice were kept under specific pathogen-free conditions with free access to food and demineralised water (ad libitum). All experiments on animals were carried in accordance with the guidelines: “Interdisciplinary Principles and Guidelines for the Use of Animals in Research. Marketing and Education” issued by the New York Academy of Sciences' Ad Hoc Committee on Animal Research and were approved by the IV Local Ethics Committee on Animal Experimentation in Warsaw (No. 71/2009). […]

rhTRAIL114-281: recombinant human soluble TRAIL, amino acids 114-281 of hTRAIL, used as the comparative reference
HCT116 IC50 (HCT-116): 0.02557 µg/mL | tumor growth inhibition (TGI) relative to the control [1]: 53.1% | tumor growth inhibition (TGI) relative to the control [2]: 12.6%
